Tests used:
HIV-IIIb = assay: Test A: Antiviral Assay in MT4 Cells; assay type: cell-based, HIV-1; conditions: Human immunodeficiency virus 1, IIIB, MT4, 120 h; for inhibition at 0.2 µM: read-out: % inhibition at 0.2 μM; for inhibition at 2 µM: read-out: % inhibition at 2 μM
Description: Test A: Antiviral Assay in MT4 Cells
MT-4 cells were next mixed with HIV-IIIb at an m.o.i of 0.003 for 1 hour, after which time 35 μL of virus/cell mixture (2000 cells) was immediately added to each well containing 40 μL of diluted compound. The plates were then incubated at 37° C. for 5 days. […] Cell lysis was carried out by incubating at room temperature for 10 min and then chemiluminescence was read.

[1] = Test B: Cytotoxicity Assay; assay type: cell-based; conditions: human, uninfected MT-4 cells, same protocol as Test A
Outline: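 Uninfected MT-4 cells (2000 per well) incubated with diluted compound at 37° C. for 5 days, following the antiviral protocol without HIV-IIIb.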

Structure (SMILES)	inhibition at 0.2 µM (HIV-IIIb) [%]	inhibition at 2 µM (HIV-IIIb) [%]	CC50 at 5 days [1] [µM]
COC(=O)Nc1nn(CC(=O)N[C@@H](Cc2cc(F)cc(F)c2)c2nc(C#CC(C)(C)O)ccc2-c2ccc(Cl)c3c(NS(C)(=O)=O)nn(C)c23)c2c1[C@H]1C[C@H]1C2(F)F [Compound 162, methyl ((3bS,4aR)-1-(2-(((S)-1-(3-(4-chloro-1-methyl-3-(methylsulfonamido)-1H-indazol-7-yl)-6-(3-hydroxy-3-methylbut-1-yn-1-yl)pyridin-2-yl)-2-(3,5-difluorophenyl)ethyl)amino)-2-oxoethyl)-5,5-difluoro-3b,4,4a,5-tetrahydro-1H-cyclopropa[3,4]cyclopenta[1,2-c]pyrazol-3-yl)carbamate]	81	81	22.4
Cn1nc(NS(C)(=O)=O)c2c(Cl)ccc(-c3ccc(C#CC(O)(CF)CF)nc3[C@H](Cc3cc(F)cc(F)c3)NC(=O)Cn3nc(C(F)F)c4c3C(F)(F)[C@@H]3C[C@H]43)c21 [Compound 170, N—((S)-1-(3-(4-chloro-1-methyl-3-(methylsulfonamido)-1H-indazol-7-yl)-6-(4-fluoro-3-(fluoromethyl)-3-hydroxybut-1-yn-1-yl)pyridin-2-yl)-2-(3,5-difluorophenyl)ethyl)-2-((3b-S,4aR)-3-(difluoromethyl)-5,5-difluoro-3b,4,4a,5-tetrahydro-1H-cyclopropa[3,4]cyclopenta[1,2-c]pyrazol-1-yl)acetamide]	88	88	17
CC(C)(O)C#Cc1ncc(-c2ccc3c(c2)C(=O)NC3)c([C@H](Cc2cc(F)cc(F)c2)NC(=O)Cn2nc(C(F)(F)F)c3c2C(F)(F)[C@@H]2C[C@H]32)n1 [Compound 22C, 2-((3bS,4aR)-5,5-difluoro-3-(trifluoromethyl)-3b,4,4a,5-tetrahydro-1H-cyclopropa[3,4]cyclopenta[1,2-c]pyrazol-1-yl)-N—((S)-2-(3,5-difluorophenyl)-1-(2-(3-hydroxy-3-methylbut-1-yn-1-yl)-5-(3-oxoisoindolin-5-yl)pyrimidin-4-yl)ethyl)acetamide]	92	92	4.95
Cn1nc(NC(=O)C(F)(F)F)c2c(Cl)ccc(-c3ccc(C#CC(C)(C)O)nc3[C@H](Cc3cc(F)cc(F)c3)NC(=O)Cn3nc(C(F)F)c4c3C(F)(F)[C@@H]3C[C@H]43)c21 [Compound 98, N-(4-chloro-7-(2-((S)-1-(2-((3bS,4aR)-3-(difluoromethyl)-5,5-difluoro-3b,4,4a,5-tetrahydro-1H-cyclopropa[3,4]cyclopenta[1,2-c]pyrazol-1-yl)acetamido)-2-(3,5-difluorophenyl)ethyl)-6-(3-hydroxy-3-methylbut-1-yn-1-yl)pyridin-3-yl)-1-methyl-1H-indazol-3-yl)-2,2,2-trifluoroacetamide]	100	100	8.41
Cn1nc(NS(C)(=O)=O)c2c(Cl)ccc(-c3cc(C(N)=O)cnc3[C@H](Cc3cc(F)cc(F)c3)NC(=O)Cn3nc(C(F)F)c4c3C(F)(F)[C@@H]3C[C@H]43)c21 [Compound 186D, 5-(4-chloro-1-methyl-3-(methylsulfonamido)-1H-indazol-7-yl)-6-((S)-1-(2-((3bS,4aR)-3-(difluoromethyl)-5,5-difluoro-3b,4,4a,5-tetrahydro-1H-cyclopropa[3,4]cyclopenta[1,2-c]pyrazol-1-yl)acetamido)-2-(3,5-difluorophenyl)ethyl)nicotinamide]	87	87	1.52
Cc1ccc(-c2ccc(C#CC(C)(C)O)nc2[C@H](Cc2cc(F)cc(F)c2)NC(=O)Cn2nc(C(F)F)c3c2C(F)(F)[C@@H]2C[C@H]32)c2c1c(N)nn2C [Compound 58G, N—((S)-1-(3-(3-amino-1,4-dimethyl-1H-indazol-7-yl)-6-(3-hydroxy-3-methylbut-1-yn-1-yl)pyridin-2-yl)-2-(3,5-difluorophenyl)ethyl)-2-((3b-S,4aR)-3-(difluoromethyl)-5,5-difluoro-3b,4,4a,5-tetrahydro-1H-cyclopropa[3,4]cyclopenta[1,2-c]pyrazol-1-yl)acetamide]	95	95	8.44
